Results published in patent publication US9212209B2, “Screening methods for spinal muscular atrophy” (Indiana University Research and Technology Corporation, priority 2012, dated 2015).

Tested on: SMN2-luciferase reporter
Experiment: SMN2-luciferase reporter assay (clonal HEK-293 SMN2-luc cells)
Format: cell-based, human
Set-up: % activation: concentration or dose not given beside the values
Conditions: for Active / % activation: reporter assay; for Active / EC50 / Emax: Table 6; for EC50 / Emax: Homo sapiens, HEK293, reporter assay; for EC50: read-out: Ec50; for Emax: read-out: Max % Activity; for % activation: Table 5
Method: The reporter cell lines were plated at 50,000 cells per well in 96-well plates and incubated overnight. Compounds were added to each well and incubated at 37° C. overnight. The final DMSO concentration was 0.1%. Luciferase activity was assayed using either STEADYGLO (PROMEGA E2510) or DUALGLO (PROMEGA E2920) luciferase using the WALLAC ENVISION multilabel reader. For detailed assay conditions see Table 2A. All data points were transformed from CPS to percent increase over basal expression in the treated control wells (DMSO or H2O as appropriate).
Plates were sealed with porous paper tape and incubated for 24 hours. […] For comparison, data points were transformed from CPS to percent activation over basal expression in the DMSO treated control wells.
For comparison, all data points are expressed as percent increase over basal luciferase expression in the control cells.

EC50 [µM] | Compound | Active | Emax [%] | % activation [%]
 | CC1CC(C(=O)NC2CCCc3ccccc32)=NO1 (stereo not drawn) [CAL-1] | No |  | 
 | CC1CC(C(=O)Nc2cnccn2)=NO1 (stereo not drawn) [CAL-2] | No |  | 
 | Cc1cc(NC(=O)C2=NOC(C)C2)no1 (stereo not drawn) [CAL-3] | No |  | 
8 | COc1ccc(NC(=O)C2=NOC(C)C2)cc1 (stereo not drawn) [CAL-4] | Yes | 211 | 
10 | CC1CC(C(=O)Nc2ccc(F)cc2)=NO1 (stereo not drawn) [CAL-5] | Yes | 108 | 
6.5 | CC1CC(C(=O)Nc2ccc(Cl)cc2F)=NO1 (stereo not drawn) [CAL-6] | Yes | 180 | 
10 | O=C(Nc1ccc(Cl)cc1)C1=NOC(c2ccccc2)C1 (stereo not drawn) [CAL-7] | Yes | 134 | 
10 | CC1CC(C(=O)Nc2ccc(F)c(Cl)c2)=NO1 (stereo not drawn) [CAL-8] | Weak | 120 | 
 | CC1CC(C(=O)Nc2cccnc2)=NO1 (stereo not drawn) [CAL-9] | No |  | 
2 | O=C(Nc1ccc(F)c(Cl)c1)C1=NOC(C2CC2)C1 (stereo not drawn) [CAL-10] | Yes | 250 | 
251 | COc1cc2c(c(OC)c1OC)C(c1ccccc1Cl)CC(=O)N2 (stereo not drawn) [CAL-21] | Yes | 14 | 
 | COc1cc2c(c(OC)c1OC)C(c1ccccc1F)CC(=O)N2 (stereo not drawn) [CAL-22] | No |  | 
 | COc1ccc2c(c1OC)C(c1cc(Br)ccc1F)CC(=O)N2 (stereo not drawn) [CAL-23] | No |  | 
0.35 | CC(C)c1cc(C(=O)Nc2cccc(Cl)c2)no1 [CAL-25] | Yes | 237 | 
94 | COc1ccc(NC(=O)c2cc(C(C)C)on2)cc1OC [CAL-26] | Yes | 160 | 
1 | COc1ccc(NC(=O)c2cc(C(C)C)on2)c(OC)c1 [CAL-27] | Yes | 125 | 
0.9 | CC(C)c1cc(C(=O)Nc2cc(Cl)ccc2Cl)no1 [CAL-28] | Yes | 59 | 
 | COc1ccc(Cl)cc1NC(=O)c1cc(C(C)C)on1 [CAL-29] | No |  | 
 | C=C/C(Cl)=C(\CCl)NC(=O)c1cc(C(C)C)on1 [CAL-30] | No |  | 
16 | CC(C)c1cc(C(=O)Nc2ccccc2C(F)(F)F)no1 [CAL-31] | Yes | 154 | 
1.7 | O=C(Nc1ccc2c(c1)OCO2)c1cc(C2CC2)on1 [CAL-33] | Yes | 217 | 

EC50 [µM] | Compound | Active | Emax [%] | % activation [%]
 | O=C(c1cc(C2CC2)on1)N1CCCc2ccccc21 [CAL-36] | No |  | 
30 | CN(C(=O)c1cc(C2CC2)on1)c1ccccc1 [CAL-37] | Yes | 143 | 
 | O=C(Nc1ccc(F)c(Cl)c1)c1noc(C2CC2)c1[N+](=O)[O-] [CAL-38] | No |  | 
 | CCN(CC)CCCNC(=O)c1cc(C2CC2)on1 [CAL-42] | No |  | 
 | CCOc1ccc(Br)cc1C1CC(=O)Nc2cc(OC)c(OC)c(OC)c21 (stereo not drawn) [CAL-50] | No |  | 
 | COc1cc(Br)c(C2CC(=O)Nc3cc(OC)c(OC)c(OC)c32)cc1OC (stereo not drawn) [CAL-51] | No |  | 
 | COc1cc2c(c(OC)c1)C(c1cc3c(cc1Br)OCO3)CC(=O)N2 (stereo not drawn) [CAL-52] | No |  | 
91 | COc1cc2c(c(OC)c1OC)C(c1c(F)cccc1Cl)CC(=O)N2 (stereo not drawn) [CAL-53] | Yes | 27 | 
 | COc1cc2c(c(OC)c1OC)C(c1cccc(C(F)(F)F)c1)CC(=O)N2 (stereo not drawn) [CAL-55] | No |  | 
 | COc1cc2c(c(OC)c1OC)C(c1cccc(Cl)c1Cl)CC(=O)N2 (stereo not drawn) [CAL-56] | No |  | 
 | COc1cc2c(c(OC)c1OC)C(c1ccc(F)c(F)c1)CC(=O)N2 (stereo not drawn) [CAL-57] | No |  | 
 | COc1ccc(-c2cn3cccc(C)c3n2)cc1Br [Compound 32531] |  |  | 108
 | Brc1ccc(-c2cn3ccccc3n2)cc1 [Compound 66278] |  |  | 114
 | CC(=O)N1c2ccccc2C(Nc2ccccc2)CC1C (stereo not drawn) [Compound 66854] |  |  | 210
 | Brc1ccc(OCc2cn3cccnc3n2)c(Br)c1 [Compound 67615] |  |  | 105
 | Cc1ccc(-c2cc(-c3ccccc3Cl)[nH]n2)c(O)c1 [Compound 72939] |  |  | 102
 | Cc1c(C(=O)NCCC(C)C)oc2ccc3c(c12)C(O)CC(C)(C)O3 (stereo not drawn) [Compound 79199] |  |  | 102
 | CNC(=O)c1ccc2nc(N3CCCCC3)sc2c1 [Compound 79213] |  |  | 90
 | O=C1CCc2cc(C(=O)CSc3ccccc3)ccc2N1 [Compound 98541] |  |  | 124
 | O=C(NCCn1ccc2ccccc21)c1ccc2c(c1)OCO2 [Compound 107992] |  |  | 121
 | CCN1C(=O)c2cccc3c(S(=O)(=O)NC4CCCC4)ccc1c23 [Compound 109657] |  |  | 152

EC50 [µM] | Compound | Active | Emax [%] | % activation [%]
 | CC(C)(C)C(=O)Nc1nc(COc2ccccc2)cs1 [Compound 109981] |  |  | 98
 | COC(=O)c1ccc2nc(NC(=O)C(C)C)sc2c1 [Compound 110116] |  |  | 97
 | O=C(Nc1nc2c(s1)Cc1ccccc1-2)C1=COCCO1 [Compound 110181] |  |  | 120
 | N#Cc1ccsc1NC(=O)CCc1ccccc1 [Compound 110425] |  |  | 93
2.6 | CC(C)c1cc(C(=O)Nc2ccc3c(c2)OCO3)no1 [LDN-75676] | Yes | 337 | 136
1.5 | CC(C)Cc1cc(C(=O)Nc2ccc(F)c(Cl)c2)no1 [LDN-75879] | Yes | 180 | 
 | COc1cc2c(c(OC)c1OC)C(c1ccc(Cl)cc1Cl)CC(=O)N2 (stereo not drawn) [LDN-76074] | No/Weak |  | 
 | COc1cc2c(c(OC)c1OC)C(c1cccnc1)CC(=O)N2 (stereo not drawn) [LDN-76158] | No |  | 
 | COc1cc2c(c(OC)c1)C(c1c(Cl)cccc1Cl)CC(=O)N2 (stereo not drawn) [LDN-76515] | No |  | 
1.1 | CC(C)c1cc(C(=O)Nc2ccc3ccccc3c2)no1 [LDN-211826] | Yes | 150 | 
 | CC(C)c1cc(C(=O)Nc2cccc3ccccc23)no1 [LDN-211827] | No/Weak |  | 
20 | O=C(Nc1ccc(F)c(Cl)c1)c1cc(C2CCCC2)on1 [LDN-211828] | Yes | 100 | 
 | O=C(Nc1ccc(F)c(Cl)c1)c1cc(C2CCCCC2)on1 [LDN-211829] | No/Weak |  | 
 | CC(C)c1cc(C(=O)Nc2ccc(F)c(Cl)c2)n[nH]1 [LDN-211830] | No |  | 
3 | CC(C)(C)c1cc(NC(=O)c2ccc(F)c(Cl)c2)no1 [LDN-211831] | Yes | 150 | 
 | CC(C)c1cc(NC(=O)Cc2ccc(F)c(Cl)c2)no1 [LDN-211832] | No |  | 
 | CC(C)c1cc(C(=O)NCc2ccc(F)c(Cl)c2)no1 [LDN-211834] | No |  | 
0.5 | CC(C)(C)c1cc(NC(=O)c2ccc3ccccc3c2)no1 [LDN-211854] | Yes | 200 | 
1.5 | O=C(Nc1ccc(F)c(Cl)c1)c1cc(Cc2ccccc2)on1 [LDN-211855] | Yes | 125 | 
 | CC(C)c1cc(C(=O)Nc2ccc(F)c(Cl)c2)nn1C [LDN-211856] | No |  | 
 | CC(C)c1cc(C(=O)Nc2ccc(F)c(Cl)c2)n(C)n1 [LDN-211857] | No |  | 
